Results reported in patent US20100249064A1, “METHODS AND COMPOSITIONS FOR TREATING DISEASES AND CONDITIONS INVOLVING HIGHER MOLECULAR WEIGHT HYALURONAN” (University of Chicago, priority 2007, published 2010).

Experiments:
Human pulmonary EC [1] = experiment: TER, HABP2/C1INH regulation of EC barrier function (Examples 3 and 6); assay type: cell-based; details: 100 nM HA or 10 μg/ml purified HABP2
Procedure: (§1) Measurement of transendothelial monolayer electrical resistance (TER). EC were grown to confluence in polycarbonate wells containing evaporated gold microelectrodes, and TER measurements performed using an electrical cell-substrate impedance sensing system obtained from Applied Biophysics (Troy, N.Y.) as previously described in detail (Garcia et al. 2001). TER values from each microelectrode were pooled at discrete time points and plotted versus time as the mean±S.E.
Determination of EC barrier function. Human pulmonary endothelial cells were grown to confluence in polycarbonate wells containing evaporated gold microelectrodes (surface area, 10-3 cm^2) in series with a large gold counter electrode (1 cm^2) connected to a phase-sensitive lock-in amplifier as described previously. Measurements of transendothelial electrical resistance (TER) were performed using an electrical cell-substrate impedance sensing system (ECIS) (Applied BioPhysics Inc.). Briefly, current was applied across the electrodes by a 4,000-Hz AC voltage source with amplitude of 1 V in series with a 1 MS/resistance to approximate a constant current source (˜1 μA). The in-phase and out-of-phase voltages between the electrodes were monitored in real time with the lock-in amplifier and subsequently converted to scalar measurements of transendothelial impedance, of which resistance was the primary focus. TER was monitored for 30 minutes to establish a baseline resistance (R0) which, for pulmonary endothelium, was typically between 8 to 12×10^3Ω (wells with R0<7×10^3Ω were rejected). As cells adhere and spread out on the microelectrode, TER increases (maximal at confluence), whereas cell retraction, rounding, or loss of adhesion was reflected by a decrease in TER. These measurements provide a highly sensitive biophysical assay that indicates the state of cell shape and focal adhesion. Values from each microelectrode were pooled at discrete time points and plotted versus time as the mean±SE of the mean (Garcia et al., 2001).

[2] = system: Human pulmonary artery EC; experiment: Cortical actin (phalloidin) staining and quantitation; assay type: cell-based; details: for cortical actin ring formation (F-actin localization): early, timepoint 5 min
Procedure: Immunofluorescence Microscopy and Cortical Actin Quantitation—Polymerized actin rearrangement was assessed first with Texas Red-conjugated phalloidin (Invitrogen (Molecular Probes), Eugene, Oreg.) and then analyzed using a Nikon Eclipse TE 300 microscope as described (Garcia et al., 2001). ImageQuant™ software (Amersham Biosciences Corp. (Piscataway, N.J.)) was used to analyze the computer recorded .tiff images. A standardized average grey value (SAGV) was generated for total phalloidin staining versus cortical phalloidin staining for each cell (Singleton et al., 2005). The following equation was used to calculate percent cortical actin staining: ((cortical actin SAGV×area) divided by (total actin SAGV×area))×100. At least ten cells per sample were analyzed. Experiments were performed in triplicate.
Immunofluorescence Microscopy. EC were serum-starved for one hour prior to the addition of 100 nM high MW HA. EC were then fixed in 4% paraformaldehyde, permeablized with ethanol and incubated with specific protein or interest primary antibody for 30 min followed by either FITC or Texas Red-conjugated secondary (Invitrogen (Molecular Probes), Eugene, Oreg.) and analyzed using a Nikon Eclipse TE 300 microscope as described (Garcia et. al., 2001).

Human pulmonary EC [3] = experiment: TER, Example 5; assay type: cell-based; details: for change in TER: human pulmonary EC, Example 5
Procedure: as §1, with “TransEC Electrical Resistance” for “transendothelial monolayer electrical resistance”, “(Applied Biophysics, Troy,” for “obtained from Applied Biophysics (Troy,”, “described” for “described in detail”, “al.,” for “al.”

HABP2 = HABP2 protein expression in EC by immunoblotting; assay type: cell-based, human; details: 100 nM HA, EC lysates, immunoblot
Procedure: Immunoblotting. Proteins in the EC lysates or mouse lung homogenates were solubilized in solubilization buffer, separated on SDS-PAGE, and analyzed by immunoblotting with specific antisera and HRP conjugated secondary antibody with enhanced chemiluminescence detection (Amersham Biosciences).
Treatment with LPS, low and high MW hyaluronan. EC were treated with 1.0 μg/ml LPS, 100 nM HMW-HA (˜1 million Daltons) or 100 nM LMW-HA (˜2,500 Daltons) for 24 hours and EC media and lysates were obtained.
Cell culture preparation and treatment. Human pulmonary microvascular EC (HPMVEC) (Cambrex), grown in EBM-2 complete medium (Cambrex) at 37° C. in a humidified atmosphere of 5% CO2, 95% air, with passages 6-10 used for experimentation will be treated with or without 1.0 μg/ml LPS, 100 nM HMW-HA and/or 100 nM LMW-HA in the presence or absence of exogenous purified recombinant HABP2 polyanion binding domain and/or C1INH (Novus Biologicals), HABP2 and/or C1INH overexpression vector or siRNA (scramble, HABP2, C1INH, PAR-1, PAR-2, PAR-3, PAR-4, tenascin-C or perlecan) or the potent hyaluronidase inhibitor, L-ascorbic acid 6-hexadecanoate (Botzki et al., 2004) (Sigma). Extracellular media and/or treated EC will either be analyzed for protein expression, HABP2 protease activity, hyaluronidase activity or Trans-endothelial Electrical Resistance (TER). […]

[4] = system: Human pulmonary artery EC; experiment: Transendothelial electrical resistance (TER) of HA-treated EC monolayers, Example 1; assay type: cell-based; details: for change in transmonolayer electrical resistance (TER): 1 nM, 10 nM or 100 nM HA, serum starved EC; for effect of pretreatment of HA by boiling or proteinase K digestion on HA-induced EC TER: HA boiled or proteinase K digested; for effect of hyaluronidase SD treatment of HA on HA-induced EC TER: HA treated with hyaluronidase SD
Procedure: Measurement of TransEC Electrical Resistance (TER)—EC were grown to confluence in polycarbonate wells containing evaporated gold microelectrodes. TER measurements were performed using an electrical cell-substrate impedance sensing system (Applied Biophysics, Troy, N.Y.) as described (Garcia et al., 2001). TER values from each microelectrode were pooled at discrete time points and plotted versus time as the mean±S.E.

With hyaluronan [HMW-HA] the “change in TER / EC barrier function” value (Human pulmonary EC [1]; listed as High MW hyaluronan) was “increased transendothelial monolayer electrical resistance (TER)”, the “cortical actin ring formation (F-actin localization)” value [2] was “induced prominent cortical actin ring formation early on” and the “time at which HMW-HA-induced increase in TER reached plateau” value (Human pulmonary EC [3]) was roughly 3 h. The “protection from LPS-induced EC barrier disruption (TER)” value (Human pulmonary EC [3]; HMW-HA (100 ng/ml), at 6 hours) was “protects from LPS-induced EC barrier disruption”, the “change in TER” value (Human pulmonary EC [3]; listed as High MW HA) was “dose-dependent increase in TER” and the “HABP2 protein expression in EC” value (HABP2; listed as high MW hyaluronan) was “reduced”. For the same substance, the “change in transmonolayer electrical resistance (TER)” value [4] was “gradual and sustained rise in transmonolayer electrical resistance (TER) in a dose-dependent fashion”, the “effect of pretreatment of HA by boiling or proteinase K digestion on HA-induced EC TER” value [4] was “little effect” and the “effect of hyaluronidase SD treatment of HA on HA-induced EC TER” value ([4]; listed as High MW HA) was “blocked the effects of High MW HA”.
hyaluronan [LMW-HA, reference compound] was tested, and the “change in TER / EC barrier function” value (Human pulmonary EC [1]; listed as low MW hyaluronan) was “induced negative TER changes ultimately resulting in EC barrier disruption”, the “cortical actin staining / F-actin stress fiber formation” value ([2]; challenge for 30 min) was “loss of cortical actin staining with increased F-actin stress fiber formation” and the “cortical actin ring formation (F-actin localization)” value [2] was “induced prominent cortical actin ring formation early on”. For the same substance, the “change in TER” value (Human pulmonary EC [3]; listed as low MW HA) was “biphasic response ultimately leading to EC barrier disruption”, the “HABP2 protein expression in EC” value (HABP2; listed as low molecular weight (MW) hyaluronan) was “significantly enhanced” and the “change in transmonolayer electrical resistance (TER)” value [4] was “biphasic changes in TER with an initial rapid increase in barrier enhancement followed by significant and prolonged barrier disruption”. The “effect of pretreatment of HA by boiling or proteinase K digestion on HA-induced EC TER” value [4] was “little effect” and the “effect of hyaluronidase SD treatment of HA on HA-induced EC TER” value ([4]; listed as Low MW HA) was “blocked the effects of Low MW HA”.
